Measurements as given in patent publication US20260185056A1, “TRIPLE TISSUE CULTURE FUSION” (IMBA - INSTITUT FÜR MOLEKULARE BIOTECHNOLOGIE GMBH, priority 2022, published 2026).
Values joined by “and” are separate entries in the source; they are usually repeats but may differ in a detail not shown here. Equal entries are not always repeated. Structures can show the parent of a compound that is named as a salt.

Experiments:
Type in all cases: cell-based, human
[1] = system: ventral midbrain organoids; test: CHIR dose curve (Wnt activation) for midbrain induction in ventral midbrain organoids (qPCR OTX2, FOXA2, TH)
Description: FIG. 2A-D: qPCR analysis of markers of ventral midbrain of the dose curving experiment to generate ventral midbrain organoids. Two separate dose curving experiments were performed, where first the correct dosage of sonic hedgehog activation was tested (FIG. 2A, floor plate marker FOXA2). Secondly, we performed qPCR to test for appropriate concentrations of posteriorization using Wnt activation. Dopaminergic neurons are born in the very ventral floor plate of the posterior midbrain, next to the midbrain-hindbrain boundary, thus the Forebrain and Midbrain marker OTX2 should still be expressed, whereas the hindbrain is OTX2 negative. We found a concentration of 0.8-1 μM sufficient to introduce midbrain (FIG. 2B), while the floor plate marker FOXA2 was still expressed (FIG. 2C). qPCR for the dopaminergic marker TH (Tyrosine hydroxylase, the rate-limiting enzyme for dopamine synthesis) confirmed this concentration of Wnt activation, with a sharp drop of TH expression starting at 1.2 μM CHIR (FIG. 2D).
All qPCR data are relative to the expression of TBP.
For each condition, 6-8 organoids were collected at indicated time points into 2 ml RNAse-free tubes. RNA was extracted using the Rneasy mini kit (Qiagen). […]
Quantification was performed in excel by calculating ΔCt relative to TBP. […]

[2] = system: dopaminergic (TH+) axons in striatal and cortical tissue of fused organoids; test: Chronic cocaine treatment of fused organoids: TH+ varicosity density and diameter; conditions: for density of TH+ varicosities on axons / diameter of TH+ varicosities: chronic 0.7 μM, vs control; for density of TH+ varicosities on axons: 1 h every 3 days, day 40-130; for diameter of TH+ varicosities: day 130
Description: A, Schematic for the treatment of fused organoids with cocaine. […] Functional, morphological and transcriptional analysis was performed on day 130. B, Representative images of dopaminergic (TH^+) axons in striatal and cortical tissue in control, chronic and withdrawal fused organoids. C, Schematic for the extraction of varicosity density and varicosity diameter in dopaminergic axons. D, Quantifications of TH^+ varicosity density in striatal and cortical tissue. N=6-8 organoids per condition, 39-49 axons. E, Measurement of varicosity diameter (axon average) in striatal and cortical tissue. N=6-8 organoids, 36-47 axons per condition and 1055|1552|1347 (striatal) and 923|1063|1340 (cortical) boutons measured. F, Schematic of the parameters' frequency and duration from GCAMP traces after extraction with CaImAn. G-H, fused organoids with GCAMP6S expression in either VM, striatal or cortical tissue were recorded on day 130 in control, chronic and withdrawal conditions (10-21 organoids per condition). […] 1776|2144|4254 individual calcium events (striatal) and 1437|6931|8000 individual calcium events (cortical). H, Analysis of calcium event frequency of striatal (n=248|245|680) and cortical (175|936|885) neurons in control, chronic and withdrawal conditions. I-J, Volcano plot comparing bulk RNAseq data of day 130 forebrain organoids chronic versus control (I) and withdrawal versus control (J) (n=6-9 organoids of 2-3 batches). […] Samples were analyzed with one-way ANOVA followed by unpaired Mann-Whitney test.
2Eci tissue clearing was performed as previously described (Masselink & Reumann, et al., Development 146, 2019). In brief, organoids were fixed with 4% formaldehyde in PBS for 4 h at RT. For 3D immunohistochemistry, PBS-TxDB was prepared: 10×PBS, 5% BSA and 2% TX100 were pre-mixed and filled up with distilled water to achieve approx. 70% of aimed volume (e.g. for 11 of PBS-TxDB, 100 ml of 10×PBS, 50 g BSA and 20 ml TX100 were used and filled up to 700 ml with distilled water. 20% DMSO was then added slowly under heavy stirring-rapid addition of DMSO may result in irreversible BSA aggregation. The solution was filled up to 100% with distilled water and sterile filtered. PBS-TxDB is stable at RT for at least several weeks, or at 4° C. for up to a year.
Organoids were blotted/permeabilized on a rotor or shaking plate for 1-2 days in 10 ml PBS-TxDB at RT. Organoids (dependent on the size, between 3 and 6) were then transferred into 2 ml Eppendorf tubes containing primary antibody solution in PBS-TxDB (between 500 μl to 1 ml) and transferred to a rotor or shaking plate for 5 days. Organoids were then washed in 10 ml PBS-TxDB for 2 days (1× rinse, 3×PBS-TxDB exchange) and the same steps were repeated for secondaries. After washing off the residual secondaries, organoids were washed in PBS for 1 h and then fixed in 4% Formaldehyde solution for 30 min-2 h. Organoids were then ready to be dehydrated in a 1-Propanol gradient (30%, 50%, 70%, 100%, 100%, 4-8 h per step). As no endogenous fluorescence had to be maintained, pH adjustment of the 1-Propanol was skipped. After dehydration, organoids were transferred into Ethyl Cinnamate and were ready for imaging as soon as completely transparent (1-3 h or overnight at RT). Cleared organoids were stored at room temperature and should not be transferred to 4° C., as Ethyl Cinnamate crystallizes out at lower temperatures. […]

[3] = system: VM, striatal and cortical neurons of fused organoids; test: Chronic cocaine treatment of fused organoids: GCAMP6S calcium imaging; conditions: for calcium event frequency: VM, striatal and cortical patterned neurons
Description: (§1) A, Schematic for the treatment of fused organoids with cocaine. […] Functional, morphological and transcriptional analysis was performed on day 130. B, Representative images of dopaminergic (TH^+) axons in striatal and cortical tissue in control, chronic and withdrawal fused organoids. C, Schematic for the extraction of varicosity density and varicosity diameter in dopaminergic axons. D, Quantifications of TH^+ varicosity density in striatal and cortical tissue. N=6-8 organoids per condition, 39-49 axons. E, Measurement of varicosity diameter (axon average) in striatal and cortical tissue. N=6-8 organoids, 36-47 axons per condition and 1055|1552|1347 (striatal) and 923|1063|1340 (cortical) boutons measured. F, Schematic of the parameters' frequency and duration from GCAMP traces after extraction with CaImAn. G-H, fused organoids with GCAMP6S expression in either VM, striatal or cortical tissue were recorded on day 130 in control, chronic and withdrawal conditions (10-21 organoids per condition). […] H, Analysis of calcium event frequency of striatal (n=248|245|680) and cortical (175|936|885) neurons in control, chronic and withdrawal conditions. I-J, Volcano plot comparing bulk RNAseq data of day 130 forebrain organoids chronic versus control (I) and withdrawal versus control (J) (n=6-9 organoids of 2-3 batches). […] Samples were analyzed with one-way ANOVA followed by unpaired Mann-Whitney test.
(§2) A, Representative 130 day old GCAMP recordings of fused organoids with Syn-GCAMP expression either in the cortical, or striatal, or VM tissue in control (left), chronic (middle) and withdrawal (right) condition. […] D, Analysis of calcium event frequency of VM (n=100|278|115) neurons in control, chronic and withdrawal conditions. […] Samples were analyzed with one-way ANOVA followed by unpaired Mann-Whitney test (C, D). E-F, Volcano plots of differentially expressed genes in VM tissue in chronic versus control I and withdrawal versus control (F). G-I, GSEA analysis of three GO terms associated with neural circuit formation (Dendrite Development, Axon Development and Synapse Organization) in forebrain chronic vs control (top) and forebrain withdrawal versus control (bottom).
Organoids were grown until […]. GCAMP was recorded using an Olympus Spinning Disk (see Microscopy section). In brief, 20× magnification and an exposure time of 65 ms per frame (continuous recording) were used for up to 6.5 min of continuous recording. For trace extraction, recordings were scaled down from 2048×2048 to 512×512 pixels. Trace extraction was performed using the opensource software package CaImAn (Flatiron Institute).
(§3) Here, we used the neural multi-tissue organoids to test the effects of cocaine on the establishment of the dopaminergic system. Cocaine is a dopamine reuptake inhibitor, which binds to the dopamine transporter (DAT) and inhibits the reuptake of dopamine after release and thus increases the available levels of dopamine to target cells. While the effects of cocaine on the adult brain are relatively well understood, not much is known about the effects of cocaine on the development of the CNS-predominantly because of the lack of an effective model system. We tested the effects of chronic cocaine exposure and its potential effect on the establishment of the dopaminergic system. […] We chronically treated fused organoids with cocaine from day 40 until day 130 and generated a withdrawal condition which was not exposed to cocaine from day 105 onwards (FIG. 17A).
In vivo, cocaine exposure has been associated with changes in neural activity.

[4] = system: forebrain and VM tissue of fused organoids; test: Chronic cocaine treatment of fused organoids: bulk RNAseq; conditions: for transcriptional change (bulk RNAseq): day 130
Description: as §1, §2, §3

Q: What does the source list for `Cc1cnc(-c2cnc(NCCNc3ccc(C#N)cn3)nc2-c2ccc(Cl)cc2Cl)[nH]1` [CHIR, 6-[[2-[[4-(2,4-dichlorophenyl)-5-(5-methyl-1H-imidazol-2-yl)-2-pyrimidinyl]amino]ethyl]amino]-3-pyridinecarbonitrile]?
A: concentration sufficient for midbrain induction ([1]; OTX2, FOXA2 and TH still expressed (qPCR)): 0.8 to 1 µM and 1 µM; concentration at which sharp drop of TH expression starts ([1]; qPCR, relative to TBP): ≥ 1.2 µM

Q: Which “diameter of TH+ varicosities, rescue by withdrawal” value ([2]; 25-day long withdrawal, striatal and cortical tissue) does the source give for `COC(=O)[C@H]1[C@@H](OC(=O)c2ccccc2)C[C@@H]2CC[C@H]1N2C` [cocaine hydrochloride] here?
A: The value was “failed to rescue”.

Q: And the “density of TH+ varicosities on axons” value ([2]; cortical tissue)?
A: The value was “significantly increased”.

Q: And the “diameter of TH+ varicosities” value ([2]; cortical tissue)?
A: Its value is “significantly reduced”.

Q: And the “density of TH+ varicosities on axons” value ([2]; striatal tissue)?
A: The value was “significantly increased”.

Q: And the “diameter of TH+ varicosities” value ([2]; striatal tissue)?
A: The value was “significantly reduced”.

Q: What about the calcium event duration ([3]; VM neurons, chronic condition, day 130) of the same compound?
A: The calcium event duration was “decrease”.

Q: What about the calcium event duration ([3]; VM neurons, cocaine withdrawal) of the same compound?
A: Its calcium event duration is “without recovery”.

Q: What about the calcium event frequency ([3]; cocaine treated vs control) of the same compound?
A: Its calcium event frequency is “fewer events per minute”.

Q: What about the calcium event frequency ([3]; withdrawal condition) of the same compound?
A: The calcium event frequency was “only partially recover”.

Q: What about the calcium event duration ([3]; cortical patterned neurons, chronic condition, day 130, vs control, hydrochloride) of the same compound?
A: The calcium event duration was “increase”.

Q: What about the calcium event duration ([3]; cortical patterned neurons, chronic condition, day 130, vs control, listed as cocaine, hydrochloride) of the same compound?
A: Its calcium event duration is “significant increase”.

Q: What about the calcium event duration ([3]; striatal neurons, chronic condition, day 130, vs control, hydrochloride) of the same compound?
A: Its calcium event duration is “significant decrease”.

Q: And the calcium event duration ([3]; striatal neurons, chronic condition, day 130, vs control, listed as cocaine, hydrochloride)?
A: The calcium event duration was “significantly shorter”.

Q: And the calcium event duration ([3]; withdrawal condition, striatal and cortical neurons)?
A: The calcium event duration was “not significantly different from the chronic condition”.

Q: What about the “transcriptional change (bulk RNAseq)” value ([4]; VM tissue, chronic and withdrawal vs control) of the same compound?
A: Its value is “only little transcriptional change”.

Q: And the “genes associated with interferon response (such as IFITM2 and IFITM3)” value ([4]; forebrain, chronic and withdrawal conditions)?
A: Its value is “upregulated”.

Q: And the “transcriptional change (bulk RNAseq)” value ([4]; forebrain, chronic and withdrawal conditions vs control)?
A: Its value is “a broad list of genes was differentially expressed”.

Q: What about the “genes associated with neural circuit formation (GO term analysis)” value ([4]; forebrain, chronic and withdrawal vs control) of the same compound?
A: Its value is “downregulation”.

Q: And the “GSEA of GO terms dendrite development, axon development and synapse organization” value ([4]; forebrain, chronic exposure and withdrawal vs control)?
A: Its value is “consistently and significantly downregulated”.
